Measured values from article PMC12294558, “New 1,2,4-Triazole Derivatives with a N-Mannich Base Structure Based on a 4,6-Dimethylpyridine Scaffold as Anticancer Agents: Design, Synthesis, Biological Evaluation, and Molecular Modeling” (International Journal of Molecular Sciences, 2025).
Marks after values point to notes of the source that are not given here.

Legend:
[1] = MTT viability assay, normal colonic epithelial cells; assay type: cell-based, human; conditions: human, CCD 841 CoTr normal colonic epithelial cells, Non-toxic = no toxicity in tested range 1–500 μM, read-out: CC50 ± SD, CCD 841 CoTr
Procedure: (§1) The cytotoxic effects of ten newly synthesized N-Mannich bases were assessed on the normal human intestinal epithelium (CCD 841 CoTr) and cancer cell lines: gastric cancer (EPG) and four colorectal cancer lines (Caco-2, LoVo, LoVo/Dx, and HT-29). Cell viability was evaluated using the MTT assay in accordance with Annex C of ISO 10993-5 [33].
(§2) The biological activity of the newly synthesized compounds was assessed in the context of anticancer activity. For this purpose, several gastrointestinal cancer lines were selected: gastric cancer (EPG 257, which belongs to the collection of the Laboratory of Cell Culture and Advanced Therapy at the University of Environmental and Life Sciences in Wrocław), and four colorectal cancer cell lines (LoVo, Caco-2, and HT-29) were obtained from the European Collection of Authenticated Cell Cultures (ECACC) and were delivered by Sigma-Aldrich, a certified distributor for the biobank. Additionally, LoVo cells were used to develop a doxorubicin-resistant subline, referred to as LoVo/Dx. Resistance was induced through gradual adaptation to increasing concentrations of doxorubicin, starting from 0.1 µg/mL and incrementally raised to 0.8 µg/mL. After reaching the maximum concentration, the cells were maintained in a medium containing 0.4 µg/mL doxorubicin for a period of three months to stabilize the resistant phenotype. […] The resulting LoVo/Dx subline, resistant to doxorubicin, was cultured in DMEM/F-12 medium and utilized in assays evaluating the effectiveness of novel compounds against multidrug-resistant cancer cells. […] The non-cancerous cell control was normal colonic epithelial cells (CCD 841 CoTr from American Type Culture Collection, (ATCC, Manassas, VA, USA)). Cell cultures were performed under standard conditions (5% CO2, 95% humidity, and 37 °C). Each cell line was cultured in the recommended medium: (1) HT-29 in McCoy’s 5a, (2) Caco-2 in Minimal Essential Medium (MEM, Biological Industries, Beit Haemek, Israel), (3) CCD 841 CoTr in Dulbecco’s Modified Eagle Medium (DMEM, Biological Industries, Beit Haemek, Israel), (4) LoVo in Dulbecco’s Modified Eagle Medium/F-12 (DMEM/F-12; Biological Industries, Beit Haemek, Israel), (5) LoVo/Dx in DMEM/F-12, and (6) EPG in DMEM. Culture media were supplemented with 10% fetal bovine serum (FBS, Sigma-Aldrich, Darmstadt, Germany) and antibiotics (penicillin and streptomycin; Sigma-Aldrich, Darmstadt, Germany). For assays, trypsinized (TrypLE solution, Thermo Fisher Scientific, Waltham, MA, USA) cells were seeded at appropriate densities of 10,000 cells per well for MTT and determination of apoptotic and necrotic cell numbers; 30,000 cells per well for the rhodamine accumulation assay; and 500,000 cells per well for ELISA tests.
(§3) The cytotoxicity of the compounds and drugs used as controls was assessed using the MTT assay. The assay also included a DMSO control. After seeding and allowing the cells to adhere overnight, they were treated with the tested compounds and drugs for another 24 h. After this time, the supernatant was removed, and a 1 mg/mL MTT solution was added for 2 h in 5% CO2, 95% humidity, at 37 °C. The supernatant was then removed, and isopropanol was added to dissolve the purple crystals over 30 min by shaking. Absorbance was measured at 570 nm in a Multiskan GO microplate reader (Thermo Fisher Scientific; Waltham, MA, USA). All reagents used for the assays were purchased from Sigma-Aldrich, Darmstadt, Germany.
(§4) Biological assays were performed in three independent replicates, each involving four samples. ELISA determinations were repeated three times.

Caco-2 cells = test: MTT viability assay, colorectal cancer cells Caco-2; assay type: cell-based, human; conditions: for SI, Caco-2: CC50 CCD 841 CoTr / CC50 Caco-2; for CC50: Homo sapiens, Caco-2, MTT, 24 h, read-out: CC50 ± SD, Caco-2
Procedure: as §1, §2, §3, §4

LoVo cells = test: MTT viability assay, colorectal cancer cells LoVo; assay type: cell-based, human; conditions: for SI, LoVo: CC50 CCD 841 CoTr / CC50 LoVo
Procedure: as §1, §2, §3, §4

LoVo/Dx cells = test: MTT viability assay, doxorubicin-resistant LoVo/Dx; assay type: cell-based, human; conditions: for SI, LoVo/Dx: CC50 CCD 841 CoTr / CC50 LoVo/Dx; for CC50: Homo sapiens, LoVo/DX, MTT, 24 h, read-out: CC50 ± SD, LoVo/Dx
Procedure: as §1, §2, §3, §4

HT-29 cells = test: MTT viability assay, colorectal cancer cells HT-29; assay type: cell-based, human; conditions: for SI, HT-29: CC50 CCD 841 CoTr / CC50 HT-29; for CC50: Homo sapiens, HT-29, MTT, 24 h, read-out: CC50 ± SD, HT-29
Procedure: as §1, §2, §3, §4

[2] = biological target: T1, P-glycoprotein (HT-29 cells) (Homo sapiens, UniProt P08183); test: Rhodamine-123 accumulation assay in HT-29; assay type: cell-based; conditions: 50 µM, 24 h; versus untreated control
T1 construct: intracellular accumulation of rhodamine 123 (a fluorescent P-gp substrate analog) in P-gp-expressing cell lines (HT-29, LoVo, and LoVo/Dx); endogenous in cells; host or cells: HT-29, LoVo (ECACC via Sigma-Aldrich); LoVo/Dx (doxorubicin-selected subline of LoVo)
T1 sequence (P08183 whole entry): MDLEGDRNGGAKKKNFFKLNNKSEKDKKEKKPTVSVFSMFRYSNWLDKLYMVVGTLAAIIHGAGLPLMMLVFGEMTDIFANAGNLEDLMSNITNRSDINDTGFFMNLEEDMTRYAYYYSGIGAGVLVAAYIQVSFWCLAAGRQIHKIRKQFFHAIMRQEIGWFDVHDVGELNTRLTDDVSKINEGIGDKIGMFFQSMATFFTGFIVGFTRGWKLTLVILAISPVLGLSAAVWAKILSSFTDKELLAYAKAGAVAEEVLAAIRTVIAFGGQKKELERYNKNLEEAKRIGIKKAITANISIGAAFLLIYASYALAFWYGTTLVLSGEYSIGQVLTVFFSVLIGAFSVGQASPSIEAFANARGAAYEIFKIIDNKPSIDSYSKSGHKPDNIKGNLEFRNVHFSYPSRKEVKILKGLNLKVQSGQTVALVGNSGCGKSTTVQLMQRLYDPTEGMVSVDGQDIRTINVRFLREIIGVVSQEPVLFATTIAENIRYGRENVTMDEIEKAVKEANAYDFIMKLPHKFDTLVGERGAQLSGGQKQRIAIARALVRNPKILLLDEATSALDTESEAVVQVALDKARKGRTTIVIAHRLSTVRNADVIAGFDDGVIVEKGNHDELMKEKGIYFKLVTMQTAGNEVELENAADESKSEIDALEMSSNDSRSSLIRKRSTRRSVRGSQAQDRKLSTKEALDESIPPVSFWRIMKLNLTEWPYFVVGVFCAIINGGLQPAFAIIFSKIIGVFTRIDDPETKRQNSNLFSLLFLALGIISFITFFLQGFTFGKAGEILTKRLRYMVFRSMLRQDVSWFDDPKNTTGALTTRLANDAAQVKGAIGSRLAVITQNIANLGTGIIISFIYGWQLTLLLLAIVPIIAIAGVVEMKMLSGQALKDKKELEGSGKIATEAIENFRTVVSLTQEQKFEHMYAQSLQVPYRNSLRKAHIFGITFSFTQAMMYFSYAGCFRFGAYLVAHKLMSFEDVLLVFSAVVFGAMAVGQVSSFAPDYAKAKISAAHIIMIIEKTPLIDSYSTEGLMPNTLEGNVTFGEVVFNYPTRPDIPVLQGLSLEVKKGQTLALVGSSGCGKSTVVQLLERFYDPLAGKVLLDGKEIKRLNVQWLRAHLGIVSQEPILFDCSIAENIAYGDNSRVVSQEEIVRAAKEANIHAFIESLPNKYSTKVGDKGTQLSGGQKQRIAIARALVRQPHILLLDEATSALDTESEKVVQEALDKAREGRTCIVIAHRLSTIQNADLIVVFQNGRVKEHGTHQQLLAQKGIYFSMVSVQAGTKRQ
Text: (§5) This test measured the intracellular accumulation of rhodamine 123 (a fluorescent P-gp substrate analog) in P-gp-expressing cell lines (HT-29, LoVo, and LoVo/Dx). Following accumulation and efflux phases, the fluorescence of rhodamine 123 (Rh-123) was quantified using spectrofluorimetry. The results are illustrated in Figure 3. Verapamil, a calcium channel blocker, served as a positive control for P-gp inhibition due to its well-established ability to inhibit P-gp activity. Verapamil binds to P-gp, inhibiting its function, which increases the intracellular concentration of chemotherapeutic drugs and other P-gp substrates.
(§6) The activity was measured for cells treated with a 50 µM concentration of the compounds and drugs in the recommended media for each cell line (without FBS) in a volume of 100 µL for 24 h. In this test, verapamil served as the control. After the incubation period, a 10 mM Rhodamine-123 (Rh-123) solution was prepared in a 1:1 DMSO mixture. […] Fluorescence was measured at 485 nm excitation and 538 nm emission using a Biotek Synergy H1 microplate reader (Agilent Technologies, Inc., Santa Clara, CA, USA). […]
(§7) Results are expressed as the mean ± SD (standard deviation) relative to the respective control (E/E0), where E represents the mean result for the measured sample, and E0 represents the mean result for the control. […]

[3] = biological target: T2, P-glycoprotein (LoVo/Dx cells) (Homo sapiens, UniProt P08183); test: Rhodamine-123 accumulation assay in LoVo/Dx; assay type: cell-based; conditions: 50 µM, 24 h; versus untreated control
T2 construct: intracellular accumulation of rhodamine 123 (a fluorescent P-gp substrate analog) in P-gp-expressing cell lines (HT-29, LoVo, and LoVo/Dx); endogenous in cells; host or cells: HT-29, LoVo (ECACC via Sigma-Aldrich); LoVo/Dx (doxorubicin-selected subline of LoVo)
T2 sequence (P08183 whole entry): as above
Text: as §5, §6, §7

SMILES | CC50 at 24 h [1] [µM] | SI, Caco-2 (Caco-2 cells) | CC50 (Caco-2 cells) [µM] | SI, LoVo (LoVo cells) | CC50 ± SD, LoVo (LoVo cells; MTT, 24 h, Non-toxic = no toxicity in tested range 1–500 μM) | SI, LoVo/Dx (LoVo/Dx cells) | CC50 (LoVo/Dx cells) [µM] | SI, HT-29 (HT-29 cells) | CC50 (HT-29 cells) [µM] | Increase of Rh-123 accumulation, HT-29 [2] [fold] | Increase of Rh-123 accumulation, LoVo/Dx [3] [fold] | CC50 (LoVo cells; Homo sapiens, LoVo, MTT, 24 h, Non-toxic = no toxicity in tested range 1–500 μM, read-out: CC50 ± SD, LoVo) [µM]
Cc1cc(C)c(C(=O)NCc2nn(CN3CCN(c4cccc(Cl)c4)CC3)c(=S)n2-c2ccccc2)c(S)n1 [Compound 5, 4,6-dimethyl-N-[(4-phenyl-5-thioxo-2-{[4-(3-chlorophenyl)piperazinyl]methyl}-4,5-dihydro-1H-1,2,4-triazol-3-yl)methyl]-2-sulfanylpyridine-3-carboxamide] | 221 ± 2.4 | 0.97 | 228 ± 5.2 | >>1 ^c | Non-toxic ^b | 1.20 | 184 ± 2.7 | 2.15 | 102 ± 2.7 | 1.23 | 4.2 | –
Cc1ccc(N2CCN(Cn3nc(CNC(=O)c4c(C)cc(C)nc4S)n(-c4ccccc4)c3=S)CC2)cc1 [Compound 6] | 388 ± 6.5 | 5.16 | 75.1 ± 5.1 | 2.37 | – | 1.99 | 195 ± 5.7 | 3.16 | 123 ± 3.9 | 1.46 | 3.5 | 163 ± 4.6
